Source: article PMC8241751, “Influence of the Dabcyl group on the cellular uptake of cationic peptides: short oligoarginines as efficient cell-penetrating peptides” (Amino Acids, 2021)

Legend:
Type in all cases: cell-based, human
[1] = test system: HL-60 cells; experiment: In vitro cytostatic activity (MTT) on HL-60
Procedure: The cells (HL-60 or MCF-7) were grown to confluency and were plated into 96-well plate with initial cell number of 5 × 10^3 per well. After 24 h incubation at 37 °C, cells were treated with the compounds at 1.28 × 10^–3–100 μM concentration range for 3 h in 200 μL final volume. Control cells were treated with serum free medium at 37 °C for 3 h. After incubation the cells were washed twice with serum free medium. For the analysis of the in vitro cytostatic effect, cells were cultured for an additional 72 h in serum containing medium. On day 4, MTT assay was carried out to determine the IC50 values of the compounds. Briefly, 45 μL of MTT solution was added to each well (2 mg/mL, dissolved in serum-free medium). Following the 4 h incubation, plates were centrifuged at 900 g for 5 min, and the supernatant was removed. The precipitated purple crystals were dissolved in 100 μL DMSO and the absorbance was determined at λ = 540 nm and λ = 620 nm using ELISA plate reader (iEMSReader, Labsystems, Finland). The percent of cytostasis was calculated using the following equation: Cytostatic effect (%) = [1 − (ODtreated/ODcontrol)] × 100; where ODtreated and ODcontrol correspond to the optical densities of the treated and the untreated control cells, respectively. In each case three independent experiments were carried out with four parallel measurements. […] The curves were defined using MicrocalTM Origin (version 9.2) software: cytostasis was plotted as a function of concentration, fitted to a sigmoidal curve, and based on this curve, the IC50 value was determined.

[2] = test system: HeLa cells; experiment: Confocal microscopy of internalisation into HeLa cells; conditions: 37 °C
Procedure: HeLa cells (2.0 × 10^5 cells) seeded in 35-mm glass-bottomed dishes (Iwaki) were cultured at a 37 °C incubator for 24 h. The cells were then incubated with peptide in α-MEM( +) and α-MEM(–) for 30 min at 37 °C or 4 °C. After washing with PBS( +) containing 0.5% (w/v) heparin, intracellular distribution of the fluorescently-labelled peptides was analysed without fixing using a confocal microscope (FV1000, Olympus). For time-lapse imaging, the cells were placed at 37 °C in a microchamber (MI-IBC-IF, Olympus) attached on the stage of the inverted microscope. The cells were then treated with 5 µM of Dabcyl–Arg6–Lys(Rh)–NH2 or Dabcyl–Arg4–Lys(Cf)–NH2 in α-MEM( +) or α-MEM(–). Time 0 represents the image immediately after the addition of conjugates.

[3] = test system: HeLa cells; experiment: Cellular uptake by flow cytometry on HeLa cells; conditions: 30 min; for Cellular uptake in the presence of serum: α-MEM(+), lowest studied concentration (2.5 μM)
Procedure: HeLa cells (8.0 × 10^4/well) in α-MEM( +) were cultured in 24-well microplates overnight at 37 °C. Cells were treated with fluorescently-labelled peptides (2.5, 5 and 10 μM) in α-MEM( +) and α-MEM without 10% BS [α-MEM(–)], respectively, for 30 min at 37 °C. After being washed with phosphate-buffered saline (PBS), cells were incubated with 0.01% trypsin in PBS for 10 min at 37 °C. The collected cells were then centrifuged at 800 g for 5 min at 4 °C, washed twice with PBS, and subjected to flow cytometry analysis (Attune NxT Flow Cytometer, ThermoFisher). Each sample was analysed over 10,000 events.

CN(C)c1ccc(/N=N/c2ccc(C(=O)N[C@@H](CCCNC(=N)N)C(=O)N[C@@H](CCCNC(=N)N)C(=O)N[C@@H](CCCNC(=N)N)C(=O)N[C@@H](CCCNC(=N)N)C(=O)N[C@@H](CCCNC(=N)N)C(=O)N[C@@H](CCCNC(=N)N)C(=O)N[C@@H](CCCCN)C(N)=O)cc2)cc1 [Dabcyl–Arg6–Lys–NH2]
IC50 ([1]; HL-60, 3 h incubation, then 3 days in serum-containing medium, MTT assay, ± sd, three independent experiments with four parallels): > 100 µM | Cytostatic effect on HL-60 cells ([1]; up to c = 100 μM): no cytostatic effect

CN(C)c1ccc(C(=O)N[C@@H](CCCNC(=N)N)C(=O)N[C@@H](CCCNC(=N)N)C(=O)N[C@@H](CCCNC(=N)N)C(=O)N[C@@H](CCCNC(=N)N)C(=O)N[C@@H](CCCNC(=N)N)C(=O)N[C@@H](CCCNC(=N)N)C(=O)N[C@@H](CCCCNC(=O)c2ccc3c(c2)C(=O)OC32c3ccc(O)cc3Oc3cc(O)ccc32)C(N)=O)cc1 [Dmab–Arg6–Lys(Cf)–NH2]
Effect on the cell viability (morphology, number of cells) ([2]; 1-20 μM, confocal microscopy): no effect on the cell viability

Dabcyl–RRRRRRK(Rh)–NH2 [Dabcyl–Arg6–Lys(Rh)–NH2, Dabcyl-modified hexaarginine with carboxytetramethylrhodamine on lysine]
Time needed to get well detectable signal with diffuse cytosolic distribution ([2]; 5 μM, α-MEM(+), time-lapse imaging): 25 min | Threshold concentration above which distribution becomes diffuse ([2]; 30 min, confocal microscopy): under 5 μM | Intracellular distribution ([2]; α-MEM(+) with serum, 10 µM, 30 min): diffuse cytosolic localisation | Intracellular distribution ([2]; α-MEM(–), 2.5 μM, 30 min): diffuse distribution pattern | Morphology of the cells ([2]; α-MEM(–), 5 and 10 μM, 30 min, cell number also decreased): dramatically changed | Internalisation in the absence of serum compared to serum (+) ([3]; 2.5 µM, 37 °C): twice | Cellular uptake, times higher than hexaarginine's ([3]; absence of serum, 2.5 µM, 37 °C): 3 times | Cellular uptake in the presence of serum [3]: markedly pronounced

Ac–RRRRRRK(Rh)–NH2 [Ac–Arg6–Lys(Rh)–NH2, acetylated hexaarginine with carboxytetramethylrhodamine on lysine]
Intracellular distribution ([2]; α-MEM(–), 5 and 10 μM, 30 min): punctate distribution | Cellular uptake in the presence of serum [3]: undetectable
